# Experimental data as given in patent US20070254843A1, “Methods for treating bone associated diseases by the use of methionine aminopeptidase-2 inhibitors” (Praecis Pharmaceuticals Incorporated, priority 2006, published 2007).
# Tests used:
# [1] = system: HUVEC; conditions: in vitro; cited from earlier work
# [2] = system: primary human osteoclast (OC) precursors; experiment: Osteoclast differentiation assay (TRAP staining); type: cell-based
# Protocol: Osteoclast differentiation assays. Primary human osteoclast (OC) precursors (Cambrex) were seeded at 10,000 cells/well (50,000 cells/ml) in osteoclast precursor growth medium (Cambrex). The cells were cultured for 7 days in the presence of either M-CSF (33 ng/ml), M-CSF (33 ng/ml) and RANKL (33 ng/ml), or in the presence of both cytokines and different concentrations of the MetAP-2 inhibitor. OC differentiation was determined by staining for the OC marker TRAP, using a leukocyte acid phosphatase kit (Sigma). Briefly, after 7 days in culture, the cells were rinsed once with PBS, fixed with 37% formaldehyde in acetone-citrate buffer for 1 min, and stained for development of red color according to the manufacturer's instructions.
# (§1) The instant invention features such an inhibitor. In order to investigate the activity of the MetAP-2 inhibitor on osteoclast (OC) differentiation and bone resorption in vitro, yet another cell type critically associated with R^A pathogenesis in an in vitro osteoclastogenesis model was utilized. Primary human OC precursors were cultured for 7 days in the presence of M-CSF and RANKL, and vehicle or increasing concentrations of the MetAP-2 inhibitor.
# [3] = system: PG-PS-induced arthritis; experiment: Microfocal computed tomography of hind joints in rat PG-PS arthritis model; type: in vivo
# Protocol: Microfocal computed tomography. All specimens were scanned on a Scanco Medical AG μCT 40 system. Images were obtained with an isotropic voxel resolution of 20 microns. A matrix size of 1024×1024 with 1000 projections was utilized for all scans. A total of 1836 slices were scanned for each specimen (the number of slices scanned was determined by the length of the scan needed to cover the entire ankle including the distal tibia). The scan time per specimen was approximately 2.6 hours. The images were then volume rendered using a fixed threshold (at two different thresholds: 255 and 140). The total bone volume and BMD were calculated over the same regions of all the specimens. Micro-CT was performed at Scanco USA, Incorporated.
# Finally, the activity of the MetAP-2 inhibitor on the structural preservation of hind joints in rats with established disease was investigated.
# The ankles including the distal tibia were scanned using a Scanco Medical AG μCT 40 system (threshold: 255), and the total bone volume and BMD were calculated over the same regions of all specimens.
# [4] = system: CTX-I; experiment: Urinary CTX-I ELISA in rat PG-PS arthritis model; type: in vivo; conditions: 1, 5 and 10 mg/kg p.o. qod
# Protocol: (§2) ELISAs for cartilage and bone biochemical turnover markers. The amount of COMP in serum was measured with a competitive enzyme immunoassay (MD Biosciences, Inc) according to the manufacturer's instructions. The detection limit of this ELISA was 0.2 U/L. Helical peptide (amino acids 620 to 633) from the α1 chain of bone-specific human CTX-I was measured either in cell culture supernatants of primary human OC precursors cultured as described above, or in urine with a competitive enzyme immunoassay (Quidel Corporation). The detection limit of this ELISA was 8 μg/L. All CTX-I measurements in urine were corrected for urinary creatinine excretion for each sample to account for potential differences in renal clearance rates among the different study groups. Urinary creatinine was measured with a colorimetric assay (Quidel Corporation).
# To assess the activity of the MetAP-2 inhibitor on systemic bone resorption in vivo, the amount of systemic CTX-I in urine was measured and corrected for urinary creatinine excretion after conclusion of the study.
# [5] = system: COMP; experiment: Serum COMP ELISA in rat PG-PS arthritis model; type: in vivo; conditions: 1, 5 and 10 mg/kg p.o. qod, after conclusion of the study
# Protocol: as §2
# The destruction of articular joints is the radiographic hallmark of bone associated disease. Therefore, the activity of the MetAP-2 inhibitor on these destructive processes was assessed by measuring biochemical turnover markers of cartilage erosion and bone resorption. […] The amount of COMP in serum of animals treated therapeutically with the MetAP-2 inhibitor (1, 5, and 10 mg/kg, p.o., qod), or vehicle was measured after conclusion of the study.
# [6] = system: primary human OC precursors; experiment: Cytotoxicity in OC precursor culture; type: cell-based; conditions: concentrations up to 100 nM
# Protocol: as §1
# [7] = system: PG-PS-induced arthritis; experiment: Clinical (histopathological) assessment of PG-PS arthritis, joint histology score; type: in vivo, rat; conditions: for Total arthritis score / Bone Resorption score / Cartilage erosion score / Cell infiltration score / Pannus formation score: PG-PS arthritis; for Bone Resorption score / Cartilage erosion score / Cell infiltration score / Pannus formation score: score 0-4
# Protocol: Clinical assessment of PG-PS arthritis. The histopathological evaluation was performed on the left and right hind joints of randomly selected animals from each study group by an independent histopathologist without knowledge of specific interventions. After completion of the study, the left and right hind ankles were removed, fixed in 10% buffered formalin, decalcified in 5% formic acid, paraffin-embedded, sectioned, and H&E stained for histological evaluation. A joint histology scoring system which grades the severity of 4 histopathological processes (cell infiltration, pannus formation, cartilage erosion, bone resorption), was used to quantify hind joint involvement in the PG-PS arthritis model (36). Dependent on the assigned score for each parameter (0=normal, 1=minimal, 2=mild, 3=moderate, 4=marked), the maximum total score per ankle is 16, and 32 per animal.
# It was investigated whether the protective activity of the MetAP-2 inhibitor in this animal model of arthritis, which is characterized by aggressive synovitis, extensive pannus formation, cartilage degradation and focal bone erosion, was mediated through regression in the severity of all clinical indices tested, or whether this activity was targeting specific pathogenic processes.
# A joint histology scoring system which grades the severity of 4 histopathological processes (cell infiltration, pannus formation, cartilage erosion, bone resorption) was used (O'Byrne (1991) Agents and Actions 134:239-241).
# [8] = system: HFLS-R^A; conditions: 100 nM; cited from earlier work
# [9] = PG-PS arthritis, 10 mg/kg, threshold 255
compound,measurement,setting,value
"CO[C@@H]1[C@H](OC(=O)N[C@@H](C(N)=O)C(C)C)CC[C@]2(CO2)[C@H]1[C@@]1(C)O[C@@H]1CC=C(C)C [MetAP-2 inhibitor, (1-Carbamoyl-2-methyl-propyl)-carbamic acid-(3R,4S,5S,6R)-5-methoxy-4-[(2R,3R)-2-methyl-3-(3-methyl-but-2-enyl)-oxiranyl]-1-oxa-spiro[2,5]oct-6-yl ester]",inhibition of proliferation of HUVEC,[1],potently inhibit
same,reversibility of the inhibition of OC differentiation,[2],fully reversible
same,inhibition of OC differentiation,[2]; concentration ≦0.1 nM,no detectable inhibition
same,generation of TRAP-positive mononuclear and multinucleated OC,"[2]; concentrations at ≦1 nM, 7 days with M-CSF and RANKL",almost completely inhibited
same,"structural integrity of hind joints, three-dimensional micro-CT images","[3]; 10 mg/kg p.o. qod, versus vehicle",protected the structural integrity of the joints and prevented focal bone erosions
same,BMD,[3]; [9],1087 ± 17.44 mg HA/ccm
same,Bone Volume (Vox-BV),[3]; [9],213.8 ± 5.23
same,"systemic urinary CTX-I levels corrected for creatinine, versus vehicle",[4],significantly decreased
same,systemic level of COMP in serum,[5],significant decrease
same,cytotoxicity,[6],did not induce cytotoxicity
same,total arthritic score versus vehicle,"[7]; 1, 5, 10 mg/kg p.o. qod",significantly decreased
same,Total arthritis score,[7]; 1 mg/kg,7.00 ± 0.58^B
same,Bone Resorption score,[7]; 1 mg/kg,2.05 ± 0.2
same,Cartilage erosion score,[7]; 1 mg/kg,1.10 ± 0.12^B
same,Cell infiltration score,[7]; 1 mg/kg,1.85 ± 0.15^A
same,Pannus formation score,[7]; 1 mg/kg,2.00 ± 0.14^A
same,Total arthritis score,[7]; 5 mg/kg,7.60 ± 0.67^B
same,Bone Resorption score,[7]; 5 mg/kg,1.80 ± 0.20^B
same,Cartilage erosion score,[7]; 5 mg/kg,1.25 ± 0.18^B
same,Cell infiltration score,[7]; 5 mg/kg,2.15 ± 0.18^A
same,Pannus formation score,[7]; 5 mg/kg,2.40 ± 0.20^A
same,Total arthritis score,[7]; 10 mg/kg,5.83 ± 0.71^B
same,Bone Resorption score,[7]; 10 mg/kg,2.00 ± 0.16^B
same,Cartilage erosion score,[7]; 10 mg/kg,0.72 ± 0.14^B
same,Cell infiltration score,[7]; 10 mg/kg,1.38 ± 0.31^A
same,Pannus formation score,[7]; 10 mg/kg,1.72 ± 0.20^A
same,induction of apoptosis in HFLS-RA,[8],did not induce apoptosis
